Measured values taken from article PMC8504809 (Clinical and Translational Science, 2021).

Experiments:
[1] = clinical trial; cited from earlier work
[2] = humans; cited from earlier work
[3] = test system: suspension monkey hepatocytes; test: In vitro hepatic uptake clearance in suspension monkey hepatocytes; assay type: in vitro ADME, cynomolgus monkey; details: 37°C
[4] = Monkey PBPK model fitting of plasma and liver concentrations; parameters: species or system cynomolgus monkey; details: for reduction of active uptake clearance with rifampin inhibition (modeled): PBPK model, RIF vs vehicle; for Kp: plasma and liver
[5] = Liver exposure; assay type: in vivo, cynomolgus monkey; details: for liver concentration, RIF vs vehicle, at 1 h: 1 h post IV infusion; for increase of liver concentration with RIF at 6 h: average, RIF vs vehicle, N = 2 per time point
[6] = Plasma pharmacokinetics after single IV cassette infusion; assay type: in vivo, cynomolgus monkey
[7] = Urinary excretion in monkeys; assay type: in vivo; details: in-house bile duct cannulation (BDC) monkey study (data not shown)
[8] = cited from earlier work
[9] = monkeys; cited from earlier work
[10] = test system: OATP1B3; details: read-out: Ki against OATP1B3; cited from earlier work
[11] = test system: OAT2; details: read-out: IC50 for OAT2; cited from earlier work
[12] = test system: OATP1B1; details: read-out: Ki against OATP1B1; cited from earlier work
[13] = Pharmacokinetics of rifampin after oral administration; assay type: in vivo; details: male, cynomolgus monkey, plasma, 20 mg/kg
[14] = PBPK fitted, rifampin, estimate (%CV)
[15] = PBPK fitted, vehicle, estimate (%CV)
[16] = rifampin, fixed to the value estimated without rifampin
[17] = RIF 20 mg/kg orally vs vehicle, monkeys
[18] = cynomolgus monkey, intravenous, 0.5 mg/kg, Kp,rest, PBPK fitted, vehicle, estimate (%CV)
[19] = cynomolgus monkey, intravenous, 0.5 mg/kg, Kp,scalar, PBPK fitted, vehicle, estimate (%CV)

For `COc1ccccc1[C@H](Cn1c(=O)n(C(C)(C)C(=O)O)c(=O)c2c(C)c(-c3ncco3)sc21)OC1CCOCC1` [GS‐0976], the “pharmacodynamic (PD) effect with potent OATP inhibitor” value [1] is given as “not altered” and the “plasma concentration with potent OATP inhibitor” value [1] is given as “increased significantly”.

For `O=C(O)C[C@H](O)C[C@H](O)/C=C/c1c(C2CC2)nc2ccccc2c1-c1ccc(F)cc1` [pitavastatin], the “increase of systemic exposure when co-administered orally with rifampin” value [2] is listed as 5.7 fold.

With `CN(C)c1ccc2c(c1)c(=O)n(-c1ccc(C[C@H](NC(=O)c3c(Cl)cccc3Cl)C(=O)O)cc1)c(=O)n2C` [Carotegrast] the “hepatocyte uptake in the presence of 200 µM of rifamycin SV” value (from here on “hepatocyte uptake in the presence”) [3] was “greatly inhibited”, the “CL,u,int,passive” value [4, 14] was 2.9 (32.4%) ml/min/kg and the “CLu,int,active” value [4, 14] was 95.2 (4.4%) ml/min/kg. The “CLu,int,bile” value [4, 14] was 11.7 (0.1%) ml/min/kg, the “CL,u,int,passive” value [4, 15] was 4.1(11.8%) ml/min/kg and the “CLu,int,active” value [4, 15] was 1154.1 (5.2%) ml/min/kg. The “CLu,int,bile” value [4, 15] was 16.3 (0.022%) ml/min/kg, the “Kp,rest” value [4, 15] was 0.85 (6.1%) and the “Kp,scalar” value [4, 15] was 0.16 (29.4%). The “Kp,rest” value [4, 16] was 0.85 (fixed), the “Kp,scalar” value [4, 16] was 0.16 (fixed) and the “liver concentration, RIF vs vehicle, at 1 h” value [5] was “comparable”. The “liver concentrations, RIF-treated vs vehicle group, at 2.5 h and 6 h” value ([5]; 2.5 h and 6 h) was “higher”, the “average Kp,liver (liver to plasma ratio)” value ([5]; without RIF (reduced by RIF treatment), Figure S3) was ~17 and the “decrease of systemic CL in the presence of RIF” value (from here on “decrease of systemic CL”) [6, 17] was “about 10 fold”. For the same molecule, the “increase of Cmax with RIF” value [6, 17] was 4.8 fold, the “increase of plasma exposure (AUClast) with RIF compared to the vehicle group” value (from here on “increase of plasma exposure (AUClast)”) [6, 17] was 9.1 fold and the “volume of distribution (V)” value ([6]; in the presence of RIF) was 0.05 L/kg. For the same molecule, the “volume of distribution (V)” value ([6]; vehicle group (without RIF)) was 0.11 L/kg and the “Urinary excretion, % of total dose” value [7] was 7.5%.

For `CC1=C(CCC(=O)O)c2cc3nc(cc4[nH]c(cc5[nH]c(cc1n2)c(C)c5CCC(=O)O)c(CCC(=O)O)c4C)C(CCC(=O)O)=C3C` [CP‐III], the “liver concentration, RIF vs vehicle, at 1 h” value [5] was “minimally changed”, the “increase of liver concentration with RIF at 6 h” value [5] was 3.7 fold and the “increase of plasma exposure (AUClast)” value [6, 17] was 8.8 fold.

For `CC(C)c1nc(N(C)S(C)(=O)=O)nc(-c2ccc(F)cc2)c1/C=C/[C@@H](O)C[C@@H](O)CC(=O)O` [Rosuvastatin], the “hepatocyte uptake in the presence” value [3] is given as “greatly inhibited”, the “fraction cleared through renal excretion” value ([8]; humans) is given as “less than 10%” and the “CL,u,int,passive” value [4, 14] is given as 0.5 (41%) ml/min/kg. The “CLu,int,active” value [4, 14] was 81.7 (8.5%) ml/min/kg, the “CLu,int,bile” value [4, 14] was 2.6 (19.7%) ml/min/kg and the “CL,u,int,passive” value [4, 15] was 1.0 (22.5%) ml/min/kg. For the same molecule, the “CLu,int,active” value [4, 15] was 331.8 (13.8%) ml/min/kg, the “CLu,int,bile” value [4, 15] was 2.8 (1.7%) ml/min/kg and the “reduction of active uptake clearance with rifampin inhibition (modeled)” value [4] was 75%. For the same molecule, the Kp [4, 18] was 2.7, the Kp [4, 19] was 1.1 and the CL renal ([4]; cynomolgus monkey, plasma, intravenous, 0.5 mg/kg) was 4.4 mL/min/kg. For the same molecule, the “liver concentrations, vehicle vs RIF pretreated groups, at 1, 2.5, and 6 h” value [5] was “overlapped”, the “decrease of systemic CL” value [6, 17] was 2.2 fold and the “increase of plasma exposure (AUClast)” value [6, 17] was 2.3 fold. The “Urinary excretion, % of the absorbed dose” value [9] was ~ 20%.

For `CO[C@H]1/C=C/O[C@@]2(C)Oc3c(C)c(O)c4c(O)c(cc(O)c4c3C2=O)NC(=O)/C(C)=C\C=C\[C@H](C)[C@H](O)[C@@H](C)[C@@H](O)[C@@H](C)[C@H](OC(C)=O)[C@@H]1C` [rifamycin SV], the Ki [10] is given as 3000 nM, the IC50 [11] is given as ~200000 nM and the Ki [12] is given as 2000 nM.

In the case of coproporphyrin I [CP‐I], the “liver concentration, RIF vs vehicle, at 1 h” value [5] is reported as “minimally changed”, the “increase of liver concentration with RIF at 6 h” value [5] is reported as 3.2 fold and the “increase of plasma exposure (AUClast)” value [6, 17] is reported as 5.4 fold.

For `Nc1c(CC(=O)O)cccc1C(=O)c1ccc(Br)cc1` [Bromfenac], the “hepatocyte uptake in the presence” value [3] is given as “partially inhibit”, the “bromfenac glucuronide excreted in urine, % of the administered dose” value ([8]; healthy subjects) is given as 82.5% and the “CL,u,int,passive” value [4, 14] is given as 11.2 (95.3%) ml/min/kg. For the same molecule, the “CLu,int,active” value [4, 14] was 820 (10.8%) ml/min/kg, the “CLu,int,meta” value [4, 14] was 84.8 (3.8%) ml/min/kg and the “CL,u,int,passive” value [4, 15] was 13.1 (96.2%) ml/min/kg. For the same molecule, the “CLu,int,active” value [4, 15] was 2300 (18.7%) ml/min/kg, the “CLu,int,meta” value [4, 15] was 49.7 (16.9%) ml/min/kg and the “reduction of active uptake clearance with rifampin inhibition (modeled)” value [4] was 64%. For the same molecule, the Kp [4, 18] was 0.8, the Kp [4, 19] was 0.5 and the “liver concentrations, vehicle vs RIF pretreated groups, at 1, 2.5, and 6 h” value [5] was “overlapped”. For the same molecule, the “decrease of systemic CL” value [6, 17] was 2.1 fold and the “increase of plasma exposure (AUClast)” value [6, 17] was 2.1 fold.

For `CO[C@H]1/C=C/O[C@@]2(C)Oc3c(C)c(O)c4c(O)c(c(/C=N/N5CCN(C)CC5)c(O)c4c3C2=O)NC(=O)/C(C)=C\C=C\[C@H](C)[C@H](O)[C@@H](C)[C@@H](O)[C@@H](C)[C@H](OC(C)=O)[C@@H]1C` [RIF, rifampin], the concentration at 3.25 h ([13]; oral) was 20.8 µM, the concentration at 6 h ([13]; oral) was > 10 µM and the Tmax ([13]; po) was 3.5 to 4.5 h.
